pKi: −log10 of the molar value. Counter-ions that a name gives are not always drawn.
Key:
serotonin transporter = biological target: T1, serotonin transporter (Rattus norvegicus, UniProt P31652); assay: serotonin transporter affinity, 3H-paroxetine binding in rat frontal cortical membranes; conditions: 3H-paroxetine 0.1 nM, read-out: ST (Ki)
T1 construct: frontal cortical membranes prepared from male Sprague-Dawley rats; from tissue; host or cells: rat frontal cortex membranes (male Sprague-Dawley)
T1 sequence (P31652 whole entry): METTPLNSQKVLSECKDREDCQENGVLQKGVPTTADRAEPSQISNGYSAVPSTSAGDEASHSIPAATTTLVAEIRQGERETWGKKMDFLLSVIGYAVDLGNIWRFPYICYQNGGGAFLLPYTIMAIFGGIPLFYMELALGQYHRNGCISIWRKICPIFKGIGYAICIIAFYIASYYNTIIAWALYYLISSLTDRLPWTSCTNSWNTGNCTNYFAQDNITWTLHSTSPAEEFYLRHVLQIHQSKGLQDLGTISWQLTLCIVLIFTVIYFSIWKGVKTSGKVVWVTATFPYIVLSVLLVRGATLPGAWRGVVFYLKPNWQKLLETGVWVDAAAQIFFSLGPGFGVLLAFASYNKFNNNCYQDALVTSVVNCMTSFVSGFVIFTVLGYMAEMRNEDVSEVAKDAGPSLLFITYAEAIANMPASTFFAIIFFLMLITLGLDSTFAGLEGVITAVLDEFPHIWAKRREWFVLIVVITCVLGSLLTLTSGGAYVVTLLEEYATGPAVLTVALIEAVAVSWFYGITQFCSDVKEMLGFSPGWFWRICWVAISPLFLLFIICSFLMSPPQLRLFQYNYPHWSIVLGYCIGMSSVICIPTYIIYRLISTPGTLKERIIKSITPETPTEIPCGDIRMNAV
Experimental: A protocol similar to that used by Cheetham et al., Neuropharmacol., 32:737 (1993) was used to determine the affinity of compounds for the serotonin transporter. Briefly, frontal cortical membranes prepared from male Sprague-Dawley rats were incubated with ^3H-paroxetine (0.1 nM) for 60 min at 25° C. All tubes also contained either vehicle, test compound (one to eight concentrations), or a saturating concentration of fluoxetine (10 μM) to define […]. All reactions were terminated by the addition of ice cold Tris buffer followed by rapid filtration using a Tom Tech filtration device to separate bound from free ^3H-paroxetine. Bound radioactivity was quantitated using a Wallac 1205 Beta Plate® counter. Nonlinear regression analysis was used to determine IC50 values which were converted to Ki values using the method set forth in Cheng and Prusoff, Biochem. Pharmacol., 22:3099 (1973) (Ki=IC50/((Radioligand conc.)/(1+KD)).

5-HT1A cloned receptor = biological target: T2, 5-HT1A cloned receptor (Homo sapiens, UniProt P08908); assay: [35S]-GTPγS binding assay; assay type: biochemical; conditions: relative to maximum agonist response defined by excess 8-OH-DPAT
T2 construct: expressed in transfected cells
T2 sequence (P08908 1-422): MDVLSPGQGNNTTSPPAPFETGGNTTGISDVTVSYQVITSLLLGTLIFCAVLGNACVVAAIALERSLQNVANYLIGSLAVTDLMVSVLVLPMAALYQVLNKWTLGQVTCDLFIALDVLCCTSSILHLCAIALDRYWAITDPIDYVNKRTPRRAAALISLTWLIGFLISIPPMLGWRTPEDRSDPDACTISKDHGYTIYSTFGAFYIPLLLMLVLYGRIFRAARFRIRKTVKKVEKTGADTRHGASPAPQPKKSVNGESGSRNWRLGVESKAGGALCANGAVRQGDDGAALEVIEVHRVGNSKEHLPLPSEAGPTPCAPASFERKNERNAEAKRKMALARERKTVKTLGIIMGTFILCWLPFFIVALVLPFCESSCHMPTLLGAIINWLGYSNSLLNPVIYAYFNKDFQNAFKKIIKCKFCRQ
Experimental: The [^35S]-GTPγS binding assay was similar to that used by Lazareno and Birdsall, Br. J. Pharmacol. 109:1120 (1993). Briefly, 5-HT1A cloned receptor membrane fragments (as used for 5-HT1A receptor binding assays) were stored at −70° C. When needed, membranes were rapidly thawed, centrifuged at 40,000×g for 10 minutes and resuspended at 4° C. for 10 minutes in assay buffer (25 mM HEPES, 3 mM MgCl2, 100 mM NaCl, 1 mM EDTA, 10 uM GDP, […], pH 8.0). These membranes were then incubated for 30 min at 30° C. with [^35S]GTPgS (1 nM) in the presence of vehicle, test compound (one to eight concentrations), or excess 8-OH-DPAT to define maximum agonist response. All reactions were terminated by the addition of ice cold Tris buffer followed by rapid filtration using a Tom Tech® filtration device to separate bound from free [^35S]GTPgS. Agonists produced an increase in the amount of [^35S]GTPgS bound whereas antagonists produced no increase in binding. Bound radioactivity was counted and analyzed as above.

human 5-HT1A receptor [1] = biological target: T3, human 5-HT1A receptor (Homo sapiens, UniProt P08908); assay: forskolin-stimulated cAMP formation in 5-HT1A.CHO cells (cAMP SPA assay); assay type: cell-based; set-up: expressed in transfected cells; conditions: forskolin 1 uM
T3 sequence (P08908 1-422): T2 sequence (P08908 1-422)
Experimental: The following assays were performed by incubating the cells with DMEM containing 25 mM HEPES, 5 mM theophylline and 10 μM pargyline for a period of 20 minutes at 37° C. Functional activity was assessed by treating the cells with forskolin (1 uM final concentration) followed immediately by test compound (6 concentrations) for an additional 10 min at 37° C. In separate experiments, 6 concentrations of antagonist were preincubated for 20 min prior to the addition of 10 nM 8-OH-DPAT and forskolin. The reaction was terminated by removal of the media and addition of 0.5 ml ice cold assay buffer. Plates were stored at −20° C. prior to assessment of cAMP formation by a cAMP SPA assay (Amersham).

human 5-HT1A receptor [2] = biological target: T3, human 5-HT1A receptor; assay: human 5-HT1A receptor binding with [3H]8-OH-DPAT in CHO cell membranes
Experimental: A stable Chinese hamster ovary cell line expressing the human 5-HT1A receptor subtype (5-HT1A.CHO cells) was employed throughout this study. Cells were maintained in DMEM supplemented with 10% fetal calf serum, non-essential amino acids and penicillin/ streptomycin.
Cells were grown to 95-100% confluency as a monolayer before membranes were harvested for binding studies. Cells were gently scraped from the culture plates, transferred to centrifuge tubes, and washed twice by centrifugation (2000 rpm for 10 min., 4° C.) in buffer (50 mM Tris; pH 7.5). The resulting pellets were aliquoted and maintained at −80° C. On the day of assay, the cells were thawed on ice, and resuspended in buffer. Studies were conducted using [^3H]8-OH-DPAT as the radioligand. The binding assay was performed in 96 well microtiter plates in a final total volume of 250 μL of buffer. Comparison experiments were performed by using 7 concentrations of unlabelled drug and a final ligand concentration of 1.5 nM. Non-specific binding was determined in the presence of 10 μM 5HT. Saturation analysis was conducted by using [^3H]8-OH-DPAT at concentrations ranging from 0.3-30 nM. Following a 30 minute incubation at room temperature, the reaction was terminated by the addition of ice cold buffer and rapid filtration using a M-96 Brandel Cell Harvester (Gaithersburg, MD) through a GF/B filter presoaked for 30 minutes in 0.5% polyethyleneimine.

SMILES	pKi (serotonin transporter)	Emax (5-HT1A cloned receptor) [%]	Emax (human 5-HT1A receptor [1]) [%]	pKi (human 5-HT1A receptor [2])	melting point [°C]
C1=C(c2c[nH]c3ncccc23)CCN(CCOc2cccc3ncccc23)C1 [Example 3, 5-{2-[4-(1H-Pyrrolo[2,3-b]pyridin-3-yl)-3,6-dihydro-2H-pyridin-1-yl]-ethoxy}-quinoline]	8.16	0	0	7.15	
C1=C(c2c[nH]c3ncccc23)CCN(CCOc2cccc3[nH]ccc23)C1 [Example 2, 3-{1-[2-(1H-Indol-4-yloxy)-ethyl]-1,2,3,6-tetrahydro-pyridin-4-yl}-1H-pyrrolo[2,3-b]pyridine]	8.84	9	0	7.96	
C1=C(c2c[nH]c3ncccc23)CCN(CCOc2cccc3[nH]ccc23)C1 (as salt: oxalate) [Example 2, 3-{1-[2-(1H-Indol-4-yloxy)-ethyl]-1,2,3,6-tetrahydro-pyridin-4-yl}-1H-pyrrolo[2,3-b]pyridine]					106 to 109
C1=C(c2c[nH]c3ncccc23)CCN(CCOc2cccc3c2OCCO3)C1 (as salt: oxalate) [Example 1, 3-{1-[2-(2,3-Dihydro-benzo[1,4]dioxin-5-yloxy)-ethyl]-1,2,3,6-tetrahydro-pyridin-4-yl}-1H-pyrrolo[2,3-b]pyridine]					164 to 167
C1=C(c2c[nH]c3ncccc23)CCN(CCOc2cccc3c2OCCO3)C1 [Example 1, 3-{1-[2-(2,3-Dihydro-benzo[1,4]dioxin-5-yloxy)-ethyl]-1,2,3,6-tetrahydro-pyridin-4-yl}-1H-pyrrolo[2,3-b]pyridine]	7.74	30		7.36	
C1=C(c2c[nH]c3ncccc23)CCN(CCOc2cccc3ncccc23)C1 (as salt: oxalate) [Example 3, 5-{2-[4-(1H-Pyrrolo[2,3-b]pyridin-3-yl)-3,6-dihydro-2H-pyridin-1-yl]-ethoxy}-quinoline]					202 to 205

Source: patent US6337336B1, “Azaindole derivatives for the treatment of depression” (American Home Products Corporation, priority 1999, dated 2002)
